What was measured:
Assay type in all cases: cell-based
[1] = system: EBC-1 lung cancer cell line; experiment: EBC-1 cell proliferation, CellTiter-Glo assay; details: Homo sapiens, 120 h; Ebc-1 cell viability, CTG assay, 5 days of treatment; read-out: CTG 5 day Ebc1 GI50
Method: (§1) The ability of the BCL-xL degrader low molecular weight compounds to inhibit cell proliferation and survival was assessed using the Promega CellTiter-Glo® proliferation assay on the EBC-1 lung cancer cell line (RCB1965, obtained from RIKEN.) The cells were cultured in media that is optimal for their growth at 5% CO2, 37° C. in a tissue culture incubator. Prior to seeding for the proliferation assay, the cells were split at least 2 days before the assay to ensure optimal growth density. On the day of seeding, cells were lifted off tissue culture flasks using 0.25% trypsin. Cell viability and cell density were determined using a cell counter (Vi-Cell XR Cell Viability Analyzer, Beckman Coulter). Cells with higher than 85% viability were seeded in white clear bottom 384-well plates (Greiner cat #781098) at a density of 1000 cells per well in 50 μL of standard growth media. Plates were incubated at 37° C. overnight in a tissue culture incubator.
The BCL-xL degrader low molecular weight compounds were prepared to desired concentrations. A series of 10 dilutions were made for each prepared compound. The prepared compounds were then added to the cells resulting in final concentrations of 0.508 nM-10 μM. An acoustic transfer device (Echo555, Beckman Coulter) was used to add the compounds to the cells. Each treatment was tested in triplicate assay plates. Plates were incubated at 37° C. overnight or for 5 days in a tissue culture incubator. The ability of the compounds to inhibit cell proliferation and survival was assessed using the Promega CellTiter-Glo® proliferation assay. Plates were incubated at room temperature for 20 minutes to stabilize luminescent signals prior to reading using a multimode plate reader (PHERAstar FSX Microplate Reader, BMG Labtech).
To evaluate the effect of the compound treatments, luminescent counts of untreated cells were taken the day after seeding (Day 0 readings), and after 5 days of treatment (Day 5 readings). The Day 5 readings of the untreated cells were compared to the Day 0 readings. Assays with at least one cell doubling during the incubation period were considered valid. To evaluate the effect of the drug treatments, luminescent counts from wells containing untreated cells (100% viability) were used to normalize treated samples. The concentrations of treatment required to inhibit 50% of cell growth or survival ([…]) were calculated using a four parameter logistic regression equation.

HiBiT-tagged BCL-xL = target: T1, HiBiT-tagged BCL-xL (Homo sapiens, UniProt Q07817); experiment: NCI-H1650 BCL-xL protein levels, Nano-Glo HiBiT Lytic Detection; details: NCI-H1650 expressing HiBiT-tagged BCL-xL, overnight incubation, read-out: Bcl-xl HIBIT NCIH1650 DC50
T1 construct: expressed in transfected cells; host or cells: NCI-H1650 (ATCC No. CRL-5883), engineered HiBiT cell line
T1 sequence (Q07817 whole entry): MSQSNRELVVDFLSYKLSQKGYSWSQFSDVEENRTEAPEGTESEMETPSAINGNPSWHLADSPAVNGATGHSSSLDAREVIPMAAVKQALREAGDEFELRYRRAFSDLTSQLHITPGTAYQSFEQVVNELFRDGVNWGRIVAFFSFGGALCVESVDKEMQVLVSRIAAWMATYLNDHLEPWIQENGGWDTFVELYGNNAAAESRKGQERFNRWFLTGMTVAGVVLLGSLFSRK
Method: as §1, with “degrade BCL-xL protein” for “inhibit cell proliferation and survival”, “Nano-Glo® HiBiT Lytic Detection System. The NCI-H1650 (ATCC No. CRL-5883) was engineered to express HiBiT-tagged BCL-xL. The NCI-H1650 HiBiT” for “CellTiter-Glo® proliferation assay on the EBC-1 lung cancer”, “was” for “(RCB1965, obtained from RIKEN.) The cells were”, “protein level” for “proliferation”, “5000” for “1000”, “30” for “50”
The BCL-xL degrader low molecular weight compounds were prepared to desired concentrations. A series of 10 dilutions were made for each prepared compound. The prepared compounds were then added to the cells resulting in final concentrations of 0.508 nM-10 μM. An acoustic transfer device (Echo555, Beckman Coulter) was used to add the compounds to the cells. Each treatment was tested in triplicate assay plates. Plates were incubated at 37° C. overnight in a tissue culture incubator.
BCL-xL degradation was assessed through the addition of 30 μL of Nano-Glo® HiBiT Lytic Reagent (Promega, cat #N3040), a reagent which lyses cells and contains a furimazine substrate and the large subunit (LgBiT) used in NanoLuc® Binary Technology. The LgBiT subunit having high affinity to a HiBiT-tagged protein will bind HiBiT, if present, resulting in complex formation of a luminescent NanoBiT® enzyme. This reaction will emit a luminescent signal proportional to the amount of HiBiT-tagged BCL-xL present in the cell lysate. Plates were incubated at room temperature for 20 minutes to stabilize luminescent signals prior to reading using a luminescence reader (PHERAstar FSX Microplate Reader, BMG Labtech).
To evaluate the effect of the drug treatments, luminescent counts from wells containing untreated cells (100% HiBiT-tagged BCL-xL) were used to normalize treated samples. The concentrations of treatment required to inhibit 50% were calculated using a four parameter logistic regression equation.

Bcl-xL = target: T2, Bcl-xL (Homo sapiens, UniProt Q07817); experiment: HCT116 Bcl-xL degradation, capillary-based immunoassay (WES); details: HCT116, 24 h, 9-point serial dilution
T2 construct: Measured levels of Bcl-xL protein of HCT116 cells treated with the tested compounds; host or cells: HCT116
T2 sequence (Q07817 whole entry): as above
Procedure, shortened: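 HCT116 cells treated 24 h with compound at 10/100 nM and/or 9-point dilution (quadruplicates), then lysed. Bcl-xL measured by capillary WES immunoassay, normalized to cofilin and expressed as % of untreated cells. DC50 from four-parameter curve fit.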

MOLT-4 cells = experiment: MOLT-4 cell viability, CTG assay; details: Homo sapiens, MOLT-4, 48 h
Procedure, shortened: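 Cells grown in RPMI 1640 with 10% FBS at 37° C, 5% CO2, then exposed to compounds for 48 h (11-point 5-fold dilution, triplicates). ATP measured by CellTiter-Glo luminescence; IC50 from four-parameter fit versus control, mean of ≥2 independent experiments.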

Row | Structure (SMILES) | GI50 [1] [nM] | DC50 (HiBiT-tagged BCL-xL) [nM] | DC50 (Bcl-xL) [nM] | IC50 (MOLT-4 cells) [nM]
1 | Cc1ncsc1-c1ccc([C@H](C)NC(=O)[C@@H]2C[C@@H](O)CN2C(=O)[C@@H](NC(=O)[C@H]2CC[C@H](NC(=O)c3nc(N4CCCc5c4nnc(Nc4nc6ccccc6s4)c5C)ccc3-c3cnn(CC45CC6(C)CC(C)(C4)CC(OCCN4CCCC4)(C6)C5)c3C)CC2)C(C)(C)C)cc1 [Example 162, 6-(3-(benzo[d]thiazol-2-ylamino)-4-methyl-6,7-dihydropyrido[2,3-c]pyridazin-8(5H)-yl)-3-(1-(((1r,3R,5S,7s)-3,5-dimethyl-7-(2-(pyrrolidin-1-yl)ethoxy)adamantan-1-yl)methyl)-5-methyl-1H-pyrazol-4-yl)-N-((1S,4R)-4-(((S)-1-((2S,4R)-4-hydroxy-2-(((S)-1-(4-(4-methylthiazol-5-yl)phenyl)ethyl)carbamoyl)pyrrolidin-1-yl)-3,3-dimethyl-1-oxobutan-2-yl)carbamoyl)cyclohexyl)picolinamide] | 222 | > 1670 |  | 
2 | Cc1ncsc1-c1ccc([C@H](C)NC(=O)[C@@H]2C[C@@H](O)CN2C(=O)[C@@H](NC(=O)CCOCCOCCOCCNC(=O)c2nc(N3CCCc4c3nnc(Nc3nc5ccccc5s3)c4C)ccc2-c2cnn(CC34CC5(C)CC(C)(C3)CC(OCCN3CCCC3)(C5)C4)c2C)C(C)(C)C)cc1 [Example 159, 6-(3-(benzo[d]thiazol-2-ylamino)-4-methyl-6,7-dihydropyrido[2,3-c]pyridazin-8(5H)-yl)-3-(1-(((1r,3R,5S,7s)-3,5-dimethyl-7-(2-(pyrrolidin-1-yl)ethoxy)adamantan-1-yl)methyl)-5-methyl-1H-pyrazol-4-yl)-N—((S)-14-((2S,4R)-4-hydroxy-2-(((S)-1-(4-(4-methylthiazol-5-yl)phenyl)ethyl)carbamoyl)pyrrolidine-1-carbonyl)-15,15-dimethyl-12-oxo-3,6,9-trioxa-13-azahexadecyl)picolinamide] | 8 | > 1670 |  | 
3 | Cc1ncsc1-c1ccc([C@H](C)NC(=O)[C@@H]2C[C@@H](O)CN2C(=O)[C@@H](NC(=O)CCC(=O)N2CCC[C@@H](NC(=O)c3nc(N4CCCc5c4nnc(Nc4nc6ccccc6s4)c5C)ccc3-c3cnn(CC45CC6(C)CC(C)(C4)CC(OCCN4CCCC4)(C6)C5)c3C)C2)C(C)(C)C)cc1 [Example 171] | 121 | > 1670 |  | 
4 | Cc1ncsc1-c1ccc([C@H](C)NC(=O)[C@@H]2C[C@@H](O)CN2C(=O)[C@@H](NC(=O)[C@H]2C[C@H](NC(=O)c3nc(N4CCCc5c4nnc(Nc4nc6ccccc6s4)c5C)ccc3-c3cnn(CC45CC6(C)CC(C)(C4)CC(OCCN4CCCC4)(C6)C5)c3C)C2)C(C)(C)C)cc1 [Example 165, 6-(3-(benzo[d]thiazol-2-ylamino)-4-methyl-6,7-dihydropyrido[2,3-c]pyridazin-8(5H)-yl)-3-(1-(((1r,3R,5S,7s)-3,5-dimethyl-7-(2-(pyrrolidin-1-yl)ethoxy)adamantan-1-yl)methyl)-5-methyl-1H-pyrazol-4-yl)-N-((1S,3R)-3-(((S)-1-((2S,4R)-4-hydroxy-2-(((S)-1-(4-(4-methylthiazol-5-yl)phenyl)ethyl)carbamoyl)pyrrolidin-1-yl)-3,3-dimethyl-1-oxobutan-2-yl)carbamoyl)cyclobutyl)picolinamide] | 35 | > 1670 |  | 
5 | Cc1cc(N(CCCCN(C)C(=O)CCCCCCCCCCCNc2cccc3c2C(=O)N(C2CCC(=O)NC2=O)C3=O)c2ccc(-c3cnn(CC45CC6(C)CC(C)(C4)CC(OCCN(C)C)(C6)C5)c3C)c(C(=O)O)n2)nnc1Nc1nc2ccccc2s1 (centres unmarked) [Example 93, 6-[[6-(1,3-benzothiazol-2-ylamino)-5-methyl-pyridazin-3-yl]-[4-[12-[[2-(2,6-dioxo-3-piperidyl)-1,3-dioxo-isoindolin-4-yl]amino]dodecanoyl-methyl-amino]butyl]amino]-3-[1-[[3-[2-(dimethylamino)ethoxy]-5,7-dimethyl-1-adamantyl]methyl]-5-methyl-pyrazol-4-yl]pyridine-2-carboxylic acid] |  |  | 0.951 | 19.6
6 | Cc1c(Nc2nc3ccccc3s2)nnc2c1CCCN2c1ccc(-c2cnn(CC34CC5(C)CC(C)(C3)CC(OCCN(C)CCCCCCCCCCCOc3ccc6c(c3)C(=O)N(C3CCC(=O)NC3=O)C6=O)(C5)C4)c2C)c(C(=O)O)n1 (centres unmarked) [Example 105, 6-[3-(1,3-benzothiazol-2-ylamino)-4-methyl-6,7-dihydro-5H-pyrido[2,3-c]pyridazin-8-yl]-3-[1-[[3-[2-[11-[2-(2,6-dioxo-3-piperidyl)-1,3-dioxo-isoindolin-5-yl]oxyundecyl-methyl-amino]ethoxy]-5,7-dimethyl-1-adamantyl]methyl]-5-methyl-pyrazol-4-yl]pyridine-2-carboxylic acid] |  |  | 0.0447 | 1.75
7 | Cc1ncsc1-c1ccc([C@H](C)NC(=O)[C@@H]2C[C@@H](O)CN2C(=O)[C@@H](NC(=O)CCCCCCCCCCCCCN(C)CCOC23CC4(C)CC(C)(CC(Cn5ncc(-c6ccc(N7CCCc8c7nnc(Nc7nc9ccccc9s7)c8C)nc6C(=O)NC(C)C)c5C)(C4)C2)C3)C(C)(C)C)cc1 [Example 157, 6-[3-(1,3-benzothiazol-2-ylamino)-4-methyl-6,7-dihydro-5H-pyrido[2,3-c]pyridazin-8-yl]-3-[1-[[3-[2-[[14-[[(1S)-1-[(2S,4R)-4-hydroxy-2-[[(1S)-1-[4-(4-methylthiazol-5-yl)phenyl]ethyl]carbamoyl]pyrrolidine-1-carbonyl]-2,2-dimethyl-propyl]amino]-14-oxo-tetradecyl]-methyl-amino]ethoxy]-5,7-dimethyl-1-adamantyl]methyl]-5-methyl-pyrazol-4-yl]-N-isopropyl-pyridine-2-carboxamide] |  |  | 18.8 | 7.62
